From ChEMBL document CHEMBL5303573, “Mapping human microbiome drug metabolism by gut bacteria and their genes” (Nature, 2019)

Legend:
[1] = The drug is tested on Providencia rettgeri strain: DSM1131 for biotransformation. The drug concentrations were measured before and after a 12-h incubation by liquid-chromatography-coupled mass spectrometry (LC–MS); assay type: ADME; design: dose 2 uM, timepoint 0 vs 12 hours; conditions: 2 µM
[2] = The drug is tested on Anaerococcus hydrogenalis strain: DSM7454 for biotransformation. The drug concentrations were measured before and after a 12-h incubation by liquid-chromatography-coupled mass spectrometry (LC–MS); conditions: 2 µM
[3] = The drug is tested on Bacteroides finegoldii strain: DSM17565 for biotransformation. The drug concentrations were measured before and after a 12-h incubation by liquid-chromatography-coupled mass spectrometry (LC–MS); conditions: 2 µM
[4] = The drug is tested on Bacteroides sp. WH2 strain: WH2 for biotransformation. The drug concentrations were measured before and after a 12-h incubation by liquid-chromatography-coupled mass spectrometry (LC–MS); conditions: bacteroides sp. wh2, 12 h, 2 µM
[5] = The drug is tested on Providencia stuartii strain: ATCC25827 for biotransformation. The drug concentrations were measured before and after a 12-h incubation by liquid-chromatography-coupled mass spectrometry (LC–MS); conditions: 2 µM
[6] = The drug is tested on Odoribacter splanchnicus strain: fecal isolate for biotransformation. The drug concentrations were measured before and after a 12-h incubation by liquid-chromatography-coupled mass spectrometry (LC–MS); conditions: 2 µM
[7] = The drug is tested on Bifidobacterium ruminantium strain: fecal isolate for biotransformation. The drug concentrations were measured before and after a 12-h incubation by liquid-chromatography-coupled mass spectrometry (LC–MS); conditions: 2 µM
[8] = The drug is tested on Bacteroides vulgatus strain: ATCC8482 for biotransformation. The drug concentrations were measured before and after a 12-h incubation by liquid-chromatography-coupled mass spectrometry (LC–MS); conditions: phocaeicola vulgatus, 2 µM
[9] = The drug is tested on Dorea formicigenerans strain: ATCC27755 for biotransformation. The drug concentrations were measured before and after a 12-h incubation by liquid-chromatography-coupled mass spectrometry (LC–MS); conditions: 2 µM
[10] = bacteroides intestinalis, 12 h, 2 µM
Description: The drug is tested on Bacteroides intestinalis strain: DSM17393 for biotransformation. The drug concentrations were measured before and after a 12-h incubation by liquid-chromatography-coupled mass spectrometry (LC–MS)

[11] = The drug is tested on Ruminococcus torques strain: ATCC27756 for biotransformation. The drug concentrations were measured before and after a 12-h incubation by liquid-chromatography-coupled mass spectrometry (LC–MS); assay type: ADME; design: dose 2 uM, timepoint 0 vs 12 hours; conditions: 2 µM
[12] = bacteroides fragilis, 12 h, 2 µM
Description: The drug is tested on Bacteroides fragilis strain: DS-208 for biotransformation. The drug concentrations were measured before and after a 12-h incubation by liquid-chromatography-coupled mass spectrometry (LC–MS)

[13] = The drug is tested on Collinsella intestinalis strain: DSM13280 for biotransformation. The drug concentrations were measured before and after a 12-h incubation by liquid-chromatography-coupled mass spectrometry (LC–MS); conditions: 2 µM
[14] = The drug is tested on Bacteroides caccae strain: ATCC43185 for biotransformation. The drug concentrations were measured before and after a 12-h incubation by liquid-chromatography-coupled mass spectrometry (LC–MS); conditions: 2 µM
[15] = akkermansia muciniphila, 12 h, 2 µM
Description: The drug is tested on Akkermansia muciniphila strain: ATCC BAA-835 for biotransformation. The drug concentrations were measured before and after a 12-h incubation by liquid-chromatography-coupled mass spectrometry (LC–MS)

[16] = The drug is tested on Bacteroides coprophilus strain: DSM18228 for biotransformation. The drug concentrations were measured before and after a 12-h incubation by liquid-chromatography-coupled mass spectrometry (LC–MS); conditions: 2 µM
[17] = The drug is tested on Bacteroides uniformis strain: ATCC8492 for biotransformation. The drug concentrations were measured before and after a 12-h incubation by liquid-chromatography-coupled mass spectrometry (LC–MS); conditions: 2 µM
[18] = The drug is tested on Bacteroides xylanisolvens strain: DSM18836 for biotransformation. The drug concentrations were measured before and after a 12-h incubation by liquid-chromatography-coupled mass spectrometry (LC–MS); conditions: 2 µM
[19] = parabacteroides johnsonii, 12 h, 2 µM
Description: The drug is tested on Parabacteroides johnsonii strain: DSM18315 for biotransformation. The drug concentrations were measured before and after a 12-h incubation by liquid-chromatography-coupled mass spectrometry (LC–MS)

| SMILES | Bacterial Biotransformation [1] | Bacterial Biotransformation [2] | Bacterial Biotransformation [3] | Bacterial Biotransformation [4] | Bacterial Biotransformation [5] | Bacterial Biotransformation [6] | Bacterial Biotransformation [7] | Bacterial Biotransformation [8] | Bacterial Biotransformation [9] | Bacterial Biotransformation [10] | Bacterial Biotransformation [11] | Bacterial Biotransformation [12] | Bacterial Biotransformation [13] | Bacterial Biotransformation [14] | Bacterial Biotransformation [15] | Bacterial Biotransformation [16] | Bacterial Biotransformation [17] | Bacterial Biotransformation [18] | Bacterial Biotransformation [19] |
| --- | --- | --- | --- | --- | --- | --- | --- | --- | --- | --- | --- | --- | --- | --- | --- | --- | --- | --- | --- |
| O=C(CCCN1CCC(O)(c2ccc(Cl)cc2)CC1)c1ccc(F)cc1 [HALOPERIDOL] | Compound NOT metabolized | Compound NOT metabolized | Compound NOT metabolized | Compound NOT metabolized | Compound NOT metabolized | Compound NOT metabolized | Compound NOT metabolized | Compound NOT metabolized | Compound NOT metabolized | Compound NOT metabolized | Compound NOT metabolized | Compound NOT metabolized | Compound NOT metabolized | Compound NOT metabolized | Compound NOT metabolized | – | – | – | – |
| Br.COc1ccc2c(c1)[C@]13CCCC[C@@H]1[C@H](C2)N(C)CC3.O [DEXTROMETHORPHAN HYDROBROMIDE] | Compound NOT metabolized | Compound NOT metabolized | Compound NOT metabolized | Compound NOT metabolized | Compound NOT metabolized | – | Compound NOT metabolized | Compound NOT metabolized | Compound NOT metabolized | Compound NOT metabolized | Compound NOT metabolized | Compound NOT metabolized | Compound NOT metabolized | Compound NOT metabolized | – | Compound NOT metabolized | Compound NOT metabolized | – | – |
| CN1C(=O)CC(C)(c2ccccc2)C1=O (centres undefined) [METHSUXIMIDE] | Compound NOT metabolized | Compound NOT metabolized | Compound NOT metabolized | Compound NOT metabolized | – | Compound NOT metabolized | Compound NOT metabolized | – | Compound NOT metabolized | Compound NOT metabolized | Compound NOT metabolized | Compound NOT metabolized | Compound NOT metabolized | Compound NOT metabolized | – | Compound NOT metabolized | Compound NOT metabolized | Compound NOT metabolized | Compound NOT metabolized |
| CC(C)(C)N.CCC[C@H](N[C@@H](C)C(=O)N1[C@H](C(=O)O)C[C@@H]2CCCC[C@@H]21)C(=O)OCC [PERINDOPRIL ERBUMINE] | Compound NOT metabolized | Compound NOT metabolized | Compound NOT metabolized | Compound NOT metabolized | Compound NOT metabolized | Compound NOT metabolized | Compound NOT metabolized | Compound NOT metabolized | Compound NOT metabolized | Compound NOT metabolized | Compound NOT metabolized | – | Compound NOT metabolized | Compound NOT metabolized | Compound NOT metabolized | Compound NOT metabolized | Compound NOT metabolized | Compound NOT metabolized | – |
| NC(=O)N1c2ccccc2CC(=O)c2ccccc21 [OXCARBAZEPINE] | Compound metabolized | Compound NOT metabolized | Compound NOT metabolized | Compound NOT metabolized | Compound metabolized | Compound metabolized | Compound metabolized | – | Compound metabolized | Compound NOT metabolized | Compound metabolized | – | Compound NOT metabolized | Compound NOT metabolized | Compound metabolized | Compound metabolized | Compound metabolized | – | – |
| CN1CCOC(c2ccccc2)c2ccccc2C1 (centres undefined) [NEFOPAM] | Compound NOT metabolized | Compound NOT metabolized | Compound NOT metabolized | Compound NOT metabolized | Compound NOT metabolized | – | Compound NOT metabolized | – | Compound NOT metabolized | Compound NOT metabolized | Compound NOT metabolized | Compound NOT metabolized | Compound NOT metabolized | Compound NOT metabolized | – | Compound NOT metabolized | – | Compound NOT metabolized | Compound NOT metabolized |
| COc1ccc(Cc2nccc3cc(OC)c(OC)cc23)cc1OC [PAPAVERINE] | Compound NOT metabolized | Compound NOT metabolized | Compound NOT metabolized | Compound NOT metabolized | Compound NOT metabolized | – | Compound NOT metabolized | – | Compound NOT metabolized | Compound NOT metabolized | Compound NOT metabolized | Compound NOT metabolized | Compound NOT metabolized | Compound NOT metabolized | – | Compound NOT metabolized | – | Compound NOT metabolized | – |
| CN(C)C(=O)Oc1cccc([N+](C)(C)C)c1.[Br-] [NEOSTIGMINE BROMIDE] | Compound NOT metabolized | Compound NOT metabolized | Compound NOT metabolized | Compound NOT metabolized | Compound NOT metabolized | Compound NOT metabolized | Compound NOT metabolized | – | Compound NOT metabolized | Compound NOT metabolized | Compound NOT metabolized | Compound metabolized | Compound NOT metabolized | Compound NOT metabolized | – | Compound metabolized | Compound metabolized | – | Compound NOT metabolized |
| CN1[C@@H]2CC[C@H]1C[C@@H](OC(=O)C(CO)c1ccccc1)C2 (some centres undefined) [ATROPINE] | Compound NOT metabolized | Compound NOT metabolized | Compound NOT metabolized | Compound NOT metabolized | – | Compound NOT metabolized | Compound NOT metabolized | Compound NOT metabolized | Compound NOT metabolized | Compound NOT metabolized | Compound NOT metabolized | – | Compound NOT metabolized | Compound NOT metabolized | Compound NOT metabolized | Compound NOT metabolized | Compound NOT metabolized | Compound NOT metabolized | – |
